Measured values from paper PMC4254624 (Biochemical and biophysical research communications, 2014).
Read-outs that look alike come from different tables or passages of the source.

How the values were obtained:
[1] = molecular target: T1, EcSecA intrinsic ATPase (Escherichia coli, UniProt P10408); conditions: cited from earlier work
[2] = molecular target: EcSecA (Escherichia coli, UniProt P10408); assay: SecA ion channel activity in Xenopus oocytes; type: cell-based; conditions: for IC50: read-out: IC50 inhibition of SecA channel activity in oocytes, EcSecA
EcSecA, sequence (P10408 whole entry): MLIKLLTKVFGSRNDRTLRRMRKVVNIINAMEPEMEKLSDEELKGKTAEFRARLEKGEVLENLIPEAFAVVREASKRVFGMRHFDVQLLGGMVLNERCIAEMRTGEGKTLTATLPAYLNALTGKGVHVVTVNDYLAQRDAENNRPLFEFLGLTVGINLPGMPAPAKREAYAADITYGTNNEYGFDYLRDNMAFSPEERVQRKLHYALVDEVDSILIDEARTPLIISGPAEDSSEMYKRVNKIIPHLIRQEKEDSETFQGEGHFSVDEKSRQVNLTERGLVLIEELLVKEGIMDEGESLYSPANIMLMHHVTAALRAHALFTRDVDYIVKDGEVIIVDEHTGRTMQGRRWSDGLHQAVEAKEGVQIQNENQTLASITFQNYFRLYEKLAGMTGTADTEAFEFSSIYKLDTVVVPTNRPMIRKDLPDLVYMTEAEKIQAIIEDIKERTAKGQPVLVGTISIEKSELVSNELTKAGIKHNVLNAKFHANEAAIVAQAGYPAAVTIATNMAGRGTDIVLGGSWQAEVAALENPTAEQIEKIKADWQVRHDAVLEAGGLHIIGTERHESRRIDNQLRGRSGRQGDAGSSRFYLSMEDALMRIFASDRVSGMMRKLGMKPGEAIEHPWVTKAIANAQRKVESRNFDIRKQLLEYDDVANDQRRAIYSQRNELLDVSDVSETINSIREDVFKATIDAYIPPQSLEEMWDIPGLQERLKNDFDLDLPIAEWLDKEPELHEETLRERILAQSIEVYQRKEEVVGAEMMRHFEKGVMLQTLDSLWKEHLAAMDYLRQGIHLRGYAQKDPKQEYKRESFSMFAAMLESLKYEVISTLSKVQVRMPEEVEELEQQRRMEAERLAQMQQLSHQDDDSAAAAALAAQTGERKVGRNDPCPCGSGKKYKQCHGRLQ

[3] = molecular target: EcSecA translocation ATPase (Escherichia coli, UniProt P10408); assay: Translocation ATPase activity assay of EcSecA with BA13 membrane and proOmpA; type: biochemical; conditions: for Km / Vmax: Translocation
EcSecA translocation ATPase, sequence (P10408 whole entry): as above

[4] = molecular target: PaSecA (Pseudomonas aeruginosa, UniProt Q9LCT3); assay: SecA ion channel activity in Xenopus oocytes; type: cell-based, P. aeruginosa; conditions: for IC50: read-out: IC50 inhibition of SecA channel activity in oocytes, PaSecA
PaSecA, sequence (Q9LCT3 whole entry): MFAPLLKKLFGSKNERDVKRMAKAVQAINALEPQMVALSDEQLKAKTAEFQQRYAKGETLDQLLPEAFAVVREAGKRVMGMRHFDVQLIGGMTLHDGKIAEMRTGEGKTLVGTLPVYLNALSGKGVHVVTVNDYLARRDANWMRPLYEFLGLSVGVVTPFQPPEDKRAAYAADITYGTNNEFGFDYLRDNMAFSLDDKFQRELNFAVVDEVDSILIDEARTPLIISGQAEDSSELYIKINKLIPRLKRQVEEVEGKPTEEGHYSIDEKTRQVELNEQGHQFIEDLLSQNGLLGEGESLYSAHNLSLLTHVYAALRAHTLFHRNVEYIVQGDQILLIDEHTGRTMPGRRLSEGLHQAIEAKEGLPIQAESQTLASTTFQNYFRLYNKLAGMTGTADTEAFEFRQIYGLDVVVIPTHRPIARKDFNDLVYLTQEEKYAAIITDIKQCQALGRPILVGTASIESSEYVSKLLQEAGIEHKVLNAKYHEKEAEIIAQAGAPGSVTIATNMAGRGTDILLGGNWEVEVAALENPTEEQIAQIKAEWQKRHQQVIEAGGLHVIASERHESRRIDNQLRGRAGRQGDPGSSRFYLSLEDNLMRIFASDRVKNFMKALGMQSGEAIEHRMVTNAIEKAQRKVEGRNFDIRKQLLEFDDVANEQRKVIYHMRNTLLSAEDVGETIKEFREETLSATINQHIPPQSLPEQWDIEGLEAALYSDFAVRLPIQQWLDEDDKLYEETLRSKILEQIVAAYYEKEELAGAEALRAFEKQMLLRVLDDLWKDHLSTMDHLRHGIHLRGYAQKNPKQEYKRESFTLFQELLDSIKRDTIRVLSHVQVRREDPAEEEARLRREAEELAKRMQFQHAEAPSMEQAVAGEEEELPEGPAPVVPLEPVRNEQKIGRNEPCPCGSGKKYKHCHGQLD

[5] = molecular target: BsSecA (Bacillus subtilis, UniProt P28366); assay: SecA ion channel activity in Xenopus oocytes; type: cell-based; conditions: for IC50: read-out: IC50 inhibition of SecA channel activity in oocytes, BsSecA
BsSecA, sequence (P28366 whole entry): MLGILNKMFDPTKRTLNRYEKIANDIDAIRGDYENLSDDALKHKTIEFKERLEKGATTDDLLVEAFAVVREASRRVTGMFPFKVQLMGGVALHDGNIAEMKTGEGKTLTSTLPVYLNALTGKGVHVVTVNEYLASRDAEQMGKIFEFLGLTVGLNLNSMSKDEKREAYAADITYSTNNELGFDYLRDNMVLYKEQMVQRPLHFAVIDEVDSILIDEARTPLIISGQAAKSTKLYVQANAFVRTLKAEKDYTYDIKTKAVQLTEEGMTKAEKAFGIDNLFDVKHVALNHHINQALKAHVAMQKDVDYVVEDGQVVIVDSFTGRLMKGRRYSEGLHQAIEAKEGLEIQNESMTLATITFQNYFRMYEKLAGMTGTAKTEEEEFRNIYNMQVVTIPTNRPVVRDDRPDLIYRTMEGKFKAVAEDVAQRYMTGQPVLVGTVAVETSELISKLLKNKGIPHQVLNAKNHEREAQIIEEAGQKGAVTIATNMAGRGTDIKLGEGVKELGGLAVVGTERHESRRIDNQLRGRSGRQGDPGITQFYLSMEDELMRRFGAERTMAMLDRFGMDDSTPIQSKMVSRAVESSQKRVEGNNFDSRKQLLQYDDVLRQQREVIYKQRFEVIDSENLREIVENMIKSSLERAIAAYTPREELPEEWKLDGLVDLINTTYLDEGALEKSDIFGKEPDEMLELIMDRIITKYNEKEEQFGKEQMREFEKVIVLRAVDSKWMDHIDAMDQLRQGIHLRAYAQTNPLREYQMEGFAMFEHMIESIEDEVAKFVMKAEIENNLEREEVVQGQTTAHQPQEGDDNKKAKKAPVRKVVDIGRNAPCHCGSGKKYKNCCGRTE

[6] = molecular target: BsSecA intrinsic ATPase (Bacillus subtilis, UniProt P28366); assay: Intrinsic ATPase activity assay of BsSecA; type: biochemical
BsSecA intrinsic ATPase, sequence (P28366 whole entry): as above

[7] = molecular target: EcSecA membrane ATPase (Escherichia coli, UniProt P10408); assay: Membrane ATPase activity assay of EcSecA with urea-washed BA13 membrane; type: biochemical
EcSecA membrane ATPase, sequence (P10408 whole entry): as the sequence (P10408 whole entry) above

[8] = molecular target: T1, EcSecA intrinsic ATPase; assay: Intrinsic ATPase activity assay of EcSecA; type: biochemical; conditions: for Km / Vmax: Intrinsic; for Ki: read-out: apparent Ki, intrinsic ATPase
[9] = high ATP concentrations (above 1 mM), non-competitive
[10] = low ATP concentrations (below 0.6 mM), competitive

T1 sequence (P10408 whole entry): as above

In the case of [N-]=[N+]=[N-].[Na+] [azide, sodium azide], the “effect on SecA intrinsic ATPase activity” value [1] is listed as “does not affect”.

With O=C1OC2(c3cc(I)c(O)c(I)c3Oc3c2cc(I)c(O)c3I)c2c(Cl)c(Cl)c(Cl)c(Cl)c21 [RB, Rose Bengal] the “mechanism of inhibition of channel activity” value ([2]; EcSecA-SecYEG-SecDF•YajC liposomes in oocytes) was “non-competitive inhibition pattern”, the “mechanism of inhibition of liposome channel activity with ATP” value (“mechanism of inhibition … with ATP” for short) ([2]; EcSecA-liposomes in oocytes) was “non-competitive inhibition” and the IC50 ([2]; BA13 memb) was 4.7 ± 0.1 µM. It also gave an IC50 ([2]; L+SecYEG +SecDF•C) of 3.8 ± 0.3 µM, an IC50 ([2]; RE-13 memb +SecYEG-DF•C) of 4.4 ± 0.1 µM and a Km ([3]; RB 0.75 μM) of 180 µM. For the same molecule, the Vmax ([3]; RB 0.75 μM) was 23.42 molePi·moleSecA^−1min^−1, the Km ([3]; RB 1 μM) was 180 µM and the Vmax ([3]; RB 1 μM) was 15.06 molePi·moleSecA^−1min^−1. The “mechanism of inhibition of translocation ATPase” value ([3]; broad range of ATP concentrations) was “only non-competitively”, the Ki ([3]; read-out: Ki, translocation ATPase, non-competitive, broad range of ATP concentrations) was 0.43 ± 0.02 µM and the “mechanism of inhibition … with ATP” value ([4]; PaSecA-liposomes in oocytes) was “non-competitive inhibition”. The IC50 ([4]; BA13 memb) was 5.1 ± 0.2 µM, the IC50 ([4]; L+SecYEG +SecDF•C) was 2 ± 0.3 µM and the IC50 ([4]; Lipo) was 0.3 ± 0.2 µM. For the same molecule, the IC50 ([4]; RE-13 memb +SecYEG) was 5.1 ± 0.2 µM, the IC50 ([4]; RE-13 memb +SecYEG-DF•C) was 5.1 ± 0.1 µM and the “mechanism of inhibition … with ATP” value ([5]; BsSecA-liposomes in oocytes) was “non-competitive inhibition”. The IC50 ([5]; BA13 memb) was 5.8 ± 0.3 µM, the IC50 ([5]; L+SecYEG +SecDF•C) was 4.5 ± 0.2 µM and the IC50 ([5]; RE-13 memb +SecYEG-DF•C) was 5.2 ± 0.3 µM. The “mechanism of inhibition of intrinsic ATPase” value [6] was “two-site inhibition depending on the concentration of ATP”, the “mechanism of inhibition of membrane ATPase” value [7] was “mixed-mechanism” and the Vmax ([7]; Membrane, RB 2 μM) was 13.61 molePi·moleSecA^−1min^−1. It also gave a Km ([7]; Membrane, RB 4 μM) of 310 µM, a Vmax ([7]; Membrane, RB 4 μM) of 8.18 molePi·moleSecA^−1min^−1 and a Ki ([7]; read-out: average Ki, membrane ATPase, mixed-mechanism) of 1.42 ± 0.22 µM. It also gave a Km ([8]; High [ATP], RB 20 μM) of 1680 µM, a Vmax ([8]; High [ATP], RB 20 μM) of 6.08 molePi·moleSecA^−1min^−1 and a Km ([8]; High [ATP], RB 40 μM) of 1680 µM. The Vmax ([8]; High [ATP], RB 40 μM) was 3.99 molePi·moleSecA^−1min^−1, the Km ([8]; Low [ATP], RB 20 μM) was 250 µM and the Vmax ([8]; Low [ATP], RB 20 μM) was 3.07±0.16 molePi·moleSecA^−1min^−1. For the same molecule, the Km ([8]; Low [ATP], RB 40 μM) was 460 µM, the Vmax ([8]; Low [ATP], RB 40 μM) was 3.07±0.16 molePi·moleSecA^−1min^−1 and the “mechanism of inhibition of intrinsic ATPase versus ATP” value ([8]; high ATP concentrations) was “non-competitive inhibitor”. For the same molecule, the “mechanism of inhibition of intrinsic ATPase versus ATP” value ([8]; low ATP concentrations) was “competitive inhibitor”, the Ki [8, 9] was 57.1 ± 3.37 µM and the Ki [8, 10] was 22.4 ± 3.33 µM.

For O.O=C([O-])c1ccccc1-c1c2cc(I)c(=O)c(I)c-2oc2c(I)c([O-])c(I)cc12.[Na+].[Na+] [EB, Erythrocin B], the “mechanism of inhibition of intrinsic ATPase versus ATP” value ([8]; high ATP concentrations) was “non-competitively”, the “mechanism of inhibition of intrinsic ATPase versus ATP” value ([8]; low ATP concentrations) was “competitively” and the Ki [8, 9] was 34.3 ± 8.08 µM. For the same molecule, the Ki [8, 10] was 4.06 ± 0.32 µM.
